Here are results for 26 molecules from ChEMBL document CHEMBL4402520, “Synthetic routes and structure-activity relationships (SAR) of anti-HIV agents: A key review” (Eur J Med Chem, 2019).

Each structure is given as a SMILES string. Values after ≈ are worked out from the molar mass of the structure shown. Some results are limits rather than exact numbers.

By CC50 is commonly meant the concentration at which the toxic effect on the cells reaches its halfway point. One may read the EC50 as the concentration at which the effect is half-maximal. In general, IC50 refers to the concentration at which inhibition is half-maximal. As a reminder, the inhibition is the change of the read-out against control, counted positive when it falls.

The test system of series [1] is TZM. Nature of the series: Cytotoxicity against human TZM-bl cells. It counts as functional.
A short description of series [2]: Selectivity index, ratio of CC50 for human TZM-bl cells to EC50 for wild type HIV1 3B infected in human TZM-bl cells. Particulars: read-out: Selectivity Index. It is filed as toxicity, cell-based.
Series [3] has as its system Human immunodeficiency virus 1. The series can be described thus: Antiviral activity against wild type HIV1 3B infected in human TZM-bl cells after 4 days by ELISA. It counts as functional, organism-based. Particulars: Human immunodeficiency virus 1, 3B, 96 h. (An ELISA detects its analyte on a solid surface through an enzyme-linked reagent.)
In series [4] the test system is Human immunodeficiency virus 1. The series can be described thus: Antiviral activity against HIV1 3B infected in human C8166 cells. Particulars: Human immunodeficiency virus 1, 3B, C8166. It is filed as functional, organism-based.
Series [5] deals with TZM. The series can be described thus: Cytotoxicity against human TZM-bl cells assessed as reduction in cell viability after 4 hrs by MTT assay. It is filed as functional.
Series [6] relates to Human immunodeficiency virus 1. The series can be described thus: Antiviral activity against wild type HIV1 3B infected in human TZM-bl cells assessed as viral infection at 50 ug/ml after 1 hr relative to control. Particulars: Human immunodeficiency virus 1, 3B. It counts as functional.
Series [7] relates to Human immunodeficiency virus 1. The series can be described thus: Antiviral activity against HIV1. It is filed as functional, organism-based.
Series [8] concerns Human immunodeficiency virus 2. The series can be described thus: Antiviral activity against HIV2 ROD after 48 hrs […]. It is filed as functional, organism-based. To be noted: Human immunodeficiency virus 2, ROD.
The subject of series [9] is Human immunodeficiency virus 1. The series can be described thus: Antiviral activity against HIV1 3B after 48 hrs […]. It counts as functional, organism-based. Particulars: Human immunodeficiency virus 1, 3B.
The test system of series [10] is C8166. The series can be described thus: Cytotoxicity against human C8166 cells assessed as reduction in cell viability. It counts as functional, cell-based.
A short description of series [11]: Selectivity index, ratio of CC50 for human C8166 cells to EC50 for HIV1 3B infected in human C8166 cells. It counts as toxicity, cell-based. Particulars: read-out: Selectivity Index.
For series [12], the target named is Human immunodeficiency virus type 1 reverse transcriptase (Human immunodeficiency virus 1, UniProt Q72547). The series can be described thus: Inhibition of HIV-1 reverse transcriptase after 1 hr by ELISA.
For series [13], the system named is Human immunodeficiency virus 1. The series can be described thus: Antiviral activity against wild type HIV1 3B infected in human MT4 cells using [3H]dGTP by radio-labelled binding assay. Particulars: Human immunodeficiency virus 1, 3B. It counts as functional, organism-based.
The test system of series [14] is Human immunodeficiency virus 2. Nature of the series: Antiviral activity against HIV2 ROD. To be noted: Human immunodeficiency virus 2, ROD. It counts as functional, organism-based.
In series [15] the test system is Human immunodeficiency virus 1. Nature of the series: Antiviral activity against HIV1 3B. It is filed as functional, organism-based. Particulars: Human immunodeficiency virus 1, 3B.
Series [16] in a line: Inhibition of HIV-2 ROD9 integrase T97A/Y143C double mutant. The arrangement: species or system Human immunodeficiency virus 2.
Series [17] in a line: Inhibition of HIV-2 ROD9 integrase Y143C mutant. More on the design: species or system Human immunodeficiency virus 2.
Series [18] deals with T1, Human immunodeficiency virus type 2 integrase (Human immunodeficiency virus 2, UniProt P89582).
T1 sequence (P89582 whole entry): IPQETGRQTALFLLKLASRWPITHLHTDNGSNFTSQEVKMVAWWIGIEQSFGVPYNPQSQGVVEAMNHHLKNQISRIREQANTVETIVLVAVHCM
Nature of the series: Inhibition of wild type HIV-2 ROD9 integrase.

Series [19] is described as follows: Inhibition of HIV-2 ROD9 integrase Q148H mutant. The arrangement: species or system Human immunodeficiency virus 2.
Series [20] in a line: Inhibition of HIV-2 ROD9 integrase E92Q mutant. The arrangement: species or system Human immunodeficiency virus 2.
A short description of series [21]: Inhibition of HIV-2 ROD9 integrase T97A/N155H double mutant. More on the design: species or system Human immunodeficiency virus 2.
Series [22] is described as follows: Inhibition of HIV-2 ROD9 integrase N155H mutant. The arrangement: species or system Human immunodeficiency virus 2.
Series [23] can be described thus: Inhibition of HIV-2 ROD9 integrase G140S/Q148R double mutant. The arrangement: species or system Human immunodeficiency virus 2.
Series [24] is described as follows: Inhibition of HIV-2 ROD9 integrase Q148R mutant. The arrangement: species or system Human immunodeficiency virus 2.
Series [25] in a line: Inhibition of HIV-2 ROD9 integrase E92Q/Y143C double mutant. The arrangement: species or system Human immunodeficiency virus 2.
Series [26] in a line: Inhibition of HIV-2 ROD9 integrase G140S mutant. More on the design: species or system Human immunodeficiency virus 2.
The nature of series [27]: Inhibition of HIV-2 ROD9 integrase E92Q/N155H double mutant. The arrangement: species or system Human immunodeficiency virus 2.
The nature of series [28]: Inhibition of HIV-2 ROD9 integrase T97A mutant. The arrangement: species or system Human immunodeficiency virus 2.

In the case of `CC1OC(=O)c2ccccc2C1(Cl)c1ccc(C#Cc2ccccc2)cc1` (configuration not stated), in [1], the CC50 amounted to 215 µM. In addition, the selectivity ratio in series [2] turned out to be 0.9. This molecule returned an EC50 in series [3] of 242 µM.
In turn, `O=C(CC1(O)C(=O)Nc2ccc(Cl)cc21)c1ccccc1Cl` (configuration not stated) registered an IC50 in series [4] of 0.76 µM.
Regarding `NC1=CNC(=O)/C1=N/Nc1ccc([N+](=O)[O-])cc1`, in series [5], the Activity turned out to be 80%. In addition, the inhibition at 50 µg/mL in series [6] was determined as 91%.
In the case of `O=C(N[C@H]1C(=O)Nc2ccccc2C2CCCN21)OCc1ccccc1` (some centres not stated), in series [7], the EC50 was determined as 0.86 µM.
In the case of `Cc1ccccc1NC(=O)CSC1[Se]N=NC1c1ccc(Cl)c(Cl)c1` (configuration not stated), the EC50 in series [8] is > 22.3 µM; in [9], 5.56 µM.
The molecule `CC1OC(=O)c2ccccc2C1(Cl)c1ccccc1` (configuration not stated) registered a CC50 in series [1] of 293 µM. Also, the selectivity ratio in series [2] came to 10. Also, the EC50 in series [3] was 29.3 µM.
With `COc1ccc2c(c1)CCCN2CCC(=O)N1CCN(c2ccccc2C)CC1`, the IC50 in series [10] is 114 mg/L (≈ 291 µM); in series [12] it was 12.5 µM. Further, the selectivity ratio in series [11] amounted to 24.2.
Regarding `O=C(CSC1[Se]N=NC1c1ccc(Cl)c(Cl)c1)Nc1ccccc1Cl` (configuration not stated), the EC50 in series [8] and in series [9] was > 23.4 µM throughout.
In [12], `COc1ccccc1C(=O)CC1(O)C(=O)Nc2ccc(Cl)cc21` (configuration not stated) gave a 50% inhibitory concentration (IC50) of 0.27 µM.
As for `COc1ccc2c(c1)CCCN2CCC(=O)N1CCN(c2ccccc2)CC1`, the figures for the IC50 in [10] and in [12] were 83.2 mg/L (≈ 219 µM) and 24.2 µM, respectively. For the same molecule, the selectivity ratio in series [11] was 5.9.
As for `Cc1ccc(NC(=O)CSC2[Se]N=NC2c2ccc(Cl)c(Cl)c2)cc1` (configuration not stated), the EC50 in [8] is > 13.3 µM; in series [9] it was 6.65 µM.
With `CCCC1OC(=O)c2ccccc2C1(Cl)c1ccc(F)cc1` (configuration not stated), in series [1], the CC50 was 251 µM. Further, the selectivity ratio in [2] is 0.8. In series [3], this molecule showed an EC50 of 314 µM.
As to `CC(=O)c1ccc(NC(=O)CSC2[Se]N=NC2c2ccc(Cl)c(Cl)c2)c(Br)c1` (configuration not stated), the figures for the EC50 in [8] and in [9] were > 18.9 µM and 2.45 µM, respectively.
For `O=C(CSC1[Se]N=NC1c1ccc(Cl)c(Cl)c1)Nc1ccccc1F` (configuration not stated), the EC50 in [8] and in series [9] was > 26.9 µM in each case.
The molecule `Cn1ccc2c1S(=O)(=O)c1ccccc1NC2=O` gave an EC50 in series [7] of 14 µM.
In [1], `CCC1OC(=O)c2ccccc2C1(Cl)c1ccc(F)cc1` (configuration not stated) gave a CC50 of 263 µM. Moreover, the selectivity ratio in series [2] was found to be 2.1. Further, the EC50 in series [3] was 126 µM.
On to `Cc1ccc(NC(=O)CSC2[Se]N=NC2c2ccc(Cl)c(Cl)c2)c([N+](=O)[O-])c1` (configuration not stated), for which the results for the EC50 in series [8] and in series [9] were > 26.3 µM and 5.42 µM, respectively.
Regarding `NC1=CNC(=O)/C1=N/Nc1cccc(Cl)c1`, in series [5], the Activity was found to be 52%. For the same molecule, the inhibition at 50 µg/mL in [6] is 93%.
The molecule `Cc1cccc(N2C(=O)CSC2c2c(Cl)cccc2Cl)n1` (configuration not stated) had an IC50 in [13] of 0.044 µM.
For `Cc1cccc(N2C(=O)CSC2c2c(F)cccc2Cl)n1` (configuration not stated), the IC50 in series [13] was found to be 0.053 µM.
Regarding `Cn1cc(C(=O)O)c(=O)c2ccc(N3CCN(c4ccccn4)CC3)nc21`, the EC50 worked out at 0.55 mg/L (≈ 1.51 µM) in series [14] and 0.62 mg/L (≈ 1.7 µM) in series [15].
Taken in the same sequence, the figures for `Cn1cc(C(=O)O)c(=O)c2ccc(N3CCN(c4cccc(C(F)(F)F)c4)CC3)nc21` were > 0.41 mg/L and > 0.41 mg/L.
The matching figures for `Cn1cc(C(=O)O)c(=O)c2ccc(N3CCN(c4nccs4)CC3)nc21`: 0.922 mg/L (≈ 2.48 µM) and 3.15 mg/L (≈ 8.48 µM).
As for `Cn1cc(C(=O)O)c(=O)c2ccc(N3CCN(c4nc5ccccc5s4)CC3)nc21`, the figures for the concentration giving a half-maximal response (EC50) in series [14] and in [15] were 0.02 mg/L (≈ 0.0475 µM) and 0.03 mg/L (≈ 0.0712 µM), respectively.
As to `C[C@@H]1CCO[C@H]2Cn3cc(C(=O)NCc4ccc(F)cc4F)c(=O)c(O)c3C(=O)N12` [DOLUTEGRAVIR], the EC50 was > 10 µM in series [16]; 0.0077 µM in series [17]; 0.0023 µM in series [18]; 0.0035 µM in [19]; 0.0077 µM in [20]; 0.027 µM in [21]. Also, the EC50 in [22] was determined as 0.005 µM; in series [23] it was 0.108 µM; in series [24], 0.0057 µM; in series [25], 0.015 µM; in series [26], 0.0032 µM; in series [27], 0.025 µM. For the same molecule, in series [28], the EC50 turned out to be 0.0032 µM.
Consider `Cc1cn([C@H]2C[C@H](N=[N+]=[N-])[C@@H](CO)O2)c(=O)[nH]c1=O` [ZIDOVUDINE], for which, in series [10], the IC50 worked out at 1570 mg/L (≈ 5860 µM).
